In patent US8314130B2, “Compounds inclunding substituted pyridines for inflammation and immune-related uses” (Synta Pharmaceuticals Corp., priority 2008, dated 2012):
pIC50: −log10 of the molar value.

Legend:
IL-2 = assay: Inhibition of IL-2 production in PHA-activated Jurkat cells (1% FBS), ELISA; type: cell-based; conditions: Homo sapiens, activity class, read-out: IL-2 current inhibition Jurkat/PHA/1% FBS IC50
Procedure: Jurkat cells were placed in a 96 well plate (0.5 million cells per well in 1% FBS medium), and then a test compound of this invention was added at different concentrations. After 10 minutes, the cells were activated with PHA (final concentration 2.5 μg/mL) and incubated for 20 hours at 37° C. under 5% CO2. The final volume was 200 Following incubation, the cells were centrifuged, and the supernatants collected and stored at −70° C. prior to assaying for IL-2 production. A commercial ELISA kit (IL-2 Eli-pair, Diaclone Research, Besancon, France) was used to detect production of IL-2, from which dose response curves were obtained. The IC50 value was calculated as the concentration at which 50% of maximum IL-2 production after stimulation was inhibited versus a non-stimulation control.

CRACM1/STIM1 = molecular target: T1, CRACM1/STIM1 (Homo sapiens, UniProt Q96D31); assay: ICRAC current inhibition in CRACM1/STIM1-CHOK1 cells (patch clamp); type: cell-based; conditions: 500 nM, activity class
T1 construct: Full length human Stim1, CracM1, CracM2 and CracM3 cDNA
T1 sequence (Q96D31 whole entry): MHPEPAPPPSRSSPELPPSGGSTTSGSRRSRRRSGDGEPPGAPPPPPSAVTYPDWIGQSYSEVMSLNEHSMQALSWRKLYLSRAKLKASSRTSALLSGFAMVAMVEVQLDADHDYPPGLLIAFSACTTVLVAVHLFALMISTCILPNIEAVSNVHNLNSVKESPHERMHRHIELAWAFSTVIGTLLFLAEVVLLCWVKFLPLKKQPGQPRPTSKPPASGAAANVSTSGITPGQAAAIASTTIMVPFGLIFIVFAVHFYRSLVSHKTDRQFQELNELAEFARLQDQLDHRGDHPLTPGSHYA
Procedure: Manual patch clamp experiments are conducted in the tight-seal whole-cell configuration at room temperature (21-25° C.). Patch pipettes are fashioned from borosilicate glass capillary tubes and have resistances between 2-4 MO after filling with standard intracellular solution. High resolution current recordings are acquired with a computer-based patch clamp amplifier system (EPC-10, HEKA, Lambrecht, Germany). All voltages are corrected for a liquid junction potential of 10 mV between external and internal solutions with glutamate as the intracellular anion. Currents are filtered at 2.9 kHz and digitized at 10 μs intervals. Capacitive currents and series resistance are determined and corrected before each voltage ramp using the automatic capacitance compensation of the EPC-10.
Automated patch clamp experiments are conducted with the QPatch 16 (Sophion Bioscience, Ballerup, Denmark) at room temperature (21-25° C.). Immediately following the establishment of giga-seal whole-cell configuration, the cells membrane potential is clamped at 0 mV. Voltage ramps of 50 ms duration spanning the voltage range of −100 to +100 mV are then stimulated at a rate of 0.33 Hz. Currents are filtered at 2.9 kHz and digitized at 200 μs intervals. Capacitive currents and series resistance are determined and corrected before each voltage ramp using the automatic capacitance compensation.
In general, a whole cell patch clamp method is used to examine the effects of a compound of the invention on a channel(s) that mediates ICRAC. In such experiments, a baseline ICRAC measurement is established within the first 70 voltage ramps, or 140 seconds, for a patched cell. Then the cells are perfused with the compound to be tested and the effect of the compound on ICRAC is measured for at least an additional 440 to 500 seconds. A compound that modulates ICRAC (e.g., inhibits) is a compound that is useful in the invention for modulating CRAC ion channel activity.
ICRAC currents are measured using 50 msec voltage ramps between −100 mV to +100 mV. The voltage ramps are stimulated every 2 seconds for the first 70 sweeps, then every 5 seconds for the remainder of the experiment. The membrane potential is held at 0 mV between the test ramps. In a typical experiment, the peak inward currents will develop within 50-100 seconds. Once the ICRAC current is stabilized, the cells are perfused with a test compound in the extracellular solution for at least an additional 500 seconds.
Off-line analysis with the Heka PatchMaster software is used to separate the ICRAC membrane current from the cells basal background currents. In a typical recording, InsP3 stimulated ICRAC currents begin to develop in 6 to 12 seconds after whole cell is established. Therefore, the first 1-4 voltage ramps represent the basal membrane currents in the absence of ICRAC and the average value is subtracted from all subsequent traces. The current value at −80 mV for each ramp trace is then measured and plotted against time. The resulting current versus time data is exported into a Microsoft Excel spreadsheet. The % ICRAC inhibition in each cell is calculated by comparing the amount of current just prior to the compound perfusion to the amount of current after the cells has been perfused with the compound for 440-500 seconds. The IC50 value and Hill coefficient for each compound is estimated by fitting all the individual data points to a single-site Hill equation.
TREx™-CHO cells were transfected with human Stim1 (recombinant DNA in pcDNA4/TO/myc-His™ A with a myc epitope tag in the N-terminal) and either CracM1, CracM2 or CracM3 (recombinant DNA in pcDNA 3.1 with a HA epitope tag in the N-terminal). Stably expressing cells were selected by growing the transfected cells in antibiotics for two to three weeks. Individual cell clones were isolated via serial dilution. […]

Row | pIC50 (IL-2) | inhibition at 0.5 µM (CRACM1/STIM1) [%] | Structure (SMILES)
1 | > 7.30 | 50 to 70 | CC(C)c1sc(-c2cccnc2)cc1-c1ccc(NC(=O)c2c(F)cccc2F)cc1 [Compound 15, 2,6-difluoro-N-(4-(2-isopropyl-5-(pyridin-3-yl)thiophen-3-yl)phenyl)benzamide]
2 | > 7.30 | 70 to 100 | Cc1cc(CCc2cccnc2)sc1-c1ccc(NC(=O)c2c(F)cccc2F)cc1 [Compound 8, 2,6-difluoro-N-(4-(3-methyl-5-(2-(pyridin-3-yl)ethyl)thiophen-2-yl)phenyl)benzamide]
3 | > 7.30 | 70 to 100 | Cc1cc(Cc2cccnc2)sc1-c1ccc(NC(=O)c2c(F)cccc2F)cc1 [Compound 7, 2,6-difluoro-N-(4-(3-methyl-5-(pyridin-3-ylmethyl)thiophen-2-yl)phenyl)benzamide]
4 | > 7.30 | < 50 | C=C(C)c1sc(-c2cccnc2)cc1-c1ccc(NC(=O)c2c(F)cccc2F)cc1 [Compound 14, 2,6-difluoro-N-(4-(2-(prop-1-en-2-yl)-5-(pyridin-3-yl)thiophen-3-yl)phenyl)benzamide]
